In PubChem BioAssay AID1963827 (Molecular Pharmacology Branch, DTP, NCI, 2024):

Test system: 994946-033-R-J1-PDC complex spheroid viability
Experiment: Anticancer human tumor 994946-033-R-J1-PDC patient-derived melanoma cell line growth inhibition [POLQ]
Details: for IC50: curve of first compound; for viability, T/C: stronger effect = lower value
How it was run: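 PDC + HUVEC + MSC complex spheroids; POLQ inhibitors ± partner drugs; top conc. at/near clinical Cmax, else 10 microM (SN-38 1 microM), half-log dilutions; 37 degrees C, 5% CO2.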

[1] = second compound 0.0316 µM, first compound 0.0316 µM
[2] = second compound 0.0316 µM, first compound 0.1 µM
[3] = second compound 0.1 µM, first compound 0.0316 µM
[4] = second compound 0.1 µM, first compound 0.1 µM
[5] = second compound 0.316 µM, first compound 0.0316 µM
[6] = second compound 0.316 µM, first compound 0.1 µM
[7] = second compound 1 µM, first compound 0.0316 µM
[8] = second compound 1 µM, first compound 0.1 µM
[9] = second compound 3.16 µM, first compound 0.0316 µM
[10] = second compound 3.16 µM, first compound 0.1 µM
[11] = second compound 10 µM, first compound 0.0316 µM
[12] = second compound 10 µM, first compound 0.1 µM
[13] = second compound 0.0316 µM, first compound 0.316 µM
[14] = second compound 0.0316 µM, first compound 1 µM
[15] = second compound 0.0316 µM, first compound 3.16 µM
[16] = second compound 0.0316 µM, first compound 10 µM
[17] = second compound 0.1 µM, first compound 0.316 µM
[18] = second compound 0.1 µM, first compound 1 µM
[19] = second compound 0.1 µM, first compound 3.16 µM
[20] = second compound 0.1 µM, first compound 10 µM
[21] = second compound 0.316 µM, first compound 0.316 µM
[22] = second compound 0.316 µM, first compound 1 µM
[23] = second compound 0.316 µM, first compound 3.16 µM
[24] = second compound 0.316 µM, first compound 10 µM
[25] = second compound 1 µM, first compound 0.316 µM
[26] = second compound 1 µM, first compound 1 µM
[27] = second compound 1 µM, first compound 3.16 µM
[28] = second compound 1 µM, first compound 10 µM
[29] = second compound 3.16 µM, first compound 0.316 µM
[30] = second compound 3.16 µM, first compound 1 µM
[31] = second compound 3.16 µM, first compound 3.16 µM
[32] = second compound 3.16 µM, first compound 10 µM
[33] = second compound 10 µM, first compound 0.316 µM
[34] = second compound 10 µM, first compound 1 µM
[35] = second compound 10 µM, first compound 3.16 µM
[36] = second compound 10 µM, first compound 10 µM
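Further: spheroids exposed to drugs for 7 days.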
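Wherever viability, T/C is given: 100% = DMSO vehicle treated spheroids.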

With `Cn1ncnc1[C@H]1c2n[nH]c(=O)c3cc(F)cc(c23)N[C@@H]1c1ccc(F)cc1` + Cc1cccc(N(C)C(=O)C2C(O)CCN2c2nc(C)cc(C(F)(F)F)c2C#N)c1 the IC50 (second compound 0.0316 µM) was over 0.1 µM, the IC50 (second compound 0.1 µM) was over 0.1 µM and the IC50 (second compound 0.316 µM) was over 0.1 µM. The IC50 (second compound 1 µM) was over 0.1 µM, the IC50 (second compound 3.16 µM) was over 0.1 µM and the IC50 (second compound 10 µM) was over 0.1 µM. For the same molecule, the viability, T/C (second compound 0.0316 µM, first compound 0.000316 µM) was 105%, the viability, T/C (second compound 0.0316 µM, first compound 0.001 µM) was 85.7% and the viability, T/C (second compound 0.0316 µM, first compound 0.00316 µM) was 86.8%. The viability, T/C (second compound 0.0316 µM, first compound 0.01 µM) was 77.2%, the viability, T/C [1] was 87.7% and the viability, T/C [2] was 75.1%. For the same molecule, the viability, T/C (second compound 0.1 µM, first compound 0.000316 µM) was 81.5%, the viability, T/C (second compound 0.1 µM, first compound 0.001 µM) was 107% and the viability, T/C (second compound 0.1 µM, first compound 0.00316 µM) was 78.3%. The viability, T/C (second compound 0.1 µM, first compound 0.01 µM) was 87.8%, the viability, T/C [3] was 88.3% and the viability, T/C [4] was 64.2%. For the same molecule, the viability, T/C (second compound 0.316 µM, first compound 0.000316 µM) was 115%, the viability, T/C (second compound 0.316 µM, first compound 0.001 µM) was 118% and the viability, T/C (second compound 0.316 µM, first compound 0.00316 µM) was 77.8%. For the same molecule, the viability, T/C (second compound 0.316 µM, first compound 0.01 µM) was 99.2%, the viability, T/C [5] was 74.8% and the viability, T/C [6] was 56%. For the same molecule, the viability, T/C (second compound 1 µM, first compound 0.000316 µM) was 134%, the viability, T/C (second compound 1 µM, first compound 0.001 µM) was 91% and the viability, T/C (second compound 1 µM, first compound 0.00316 µM) was 95.9%. The viability, T/C (second compound 1 µM, first compound 0.01 µM) was 80.2%, the viability, T/C [7] was 76.9% and the viability, T/C [8] was 66.9%. For the same molecule, the viability, T/C (second compound 3.16 µM, first compound 0.000316 µM) was 111%, the viability, T/C (second compound 3.16 µM, first compound 0.001 µM) was 111% and the viability, T/C (second compound 3.16 µM, first compound 0.00316 µM) was 98%. The viability, T/C (second compound 3.16 µM, first compound 0.01 µM) was 76%, the viability, T/C [9] was 87.3% and the viability, T/C [10] was 78.7%. It also gave a viability, T/C (second compound 10 µM, first compound 0.000316 µM) of 109%, a viability, T/C (second compound 10 µM, first compound 0.001 µM) of 65% and a viability, T/C (second compound 10 µM, first compound 0.00316 µM) of 95.7%. It also gave a viability, T/C (second compound 10 µM, first compound 0.01 µM) of 106%, a viability, T/C [11] of 74.8% and a viability, T/C [12] of 69.3%.
Molecule `CC1COCCN1c1cc(C2(O)CC3CCC(C2)O3)c2cnn(-c3ccn[nH]3)c2n1` (stereo unspecified) + Nc1ccc(C#CCN(C(=O)Cc2ncc(C(F)(F)F)cc2C(F)(F)F)c2ccc(F)cc2)nn1 has an IC50 (second compound 0.0316 µM) of 0.0513 µM, an IC50 (second compound 0.1 µM) of under 0.0316 µM and an IC50 (second compound 0.316 µM) of under 0.0316 µM. For the same molecule, the IC50 (second compound 1 µM) was 0.0687 µM, the IC50 (second compound 3.16 µM) was 0.0386 µM and the IC50 (second compound 10 µM) was under 0.0316 µM. For the same molecule, the viability, T/C [1] was 59.9%, the viability, T/C [2] was 36.3% and the viability, T/C [13] was 23.4%. For the same molecule, the viability, T/C [14] was 18.8%, the viability, T/C [15] was 13.9% and the viability, T/C [16] was 6.85%. For the same molecule, the viability, T/C [3] was 43.3%, the viability, T/C [4] was 27.6% and the viability, T/C [17] was 24.2%. It also gave a viability, T/C [18] of 19.9%, a viability, T/C [19] of 10.6% and a viability, T/C [20] of 9.96%. The viability, T/C [5] was 48.5%, the viability, T/C [6] was 24.9% and the viability, T/C [21] was 26.3%. It also gave a viability, T/C [22] of 19.6%, a viability, T/C [23] of 17.6% and a viability, T/C [24] of 9.49%. It also gave a viability, T/C [7] of 74.5%, a viability, T/C [8] of 31.9% and a viability, T/C [25] of 33.7%. It also gave a viability, T/C [26] of 10.7%, a viability, T/C [27] of 13% and a viability, T/C [28] of 9.29%. It also gave a viability, T/C [9] of 55.6%, a viability, T/C [10] of 22.8% and a viability, T/C [29] of 19.8%. For the same molecule, the viability, T/C [30] was 21.4%, the viability, T/C [31] was 17.8% and the viability, T/C [32] was 8.76%. It also gave a viability, T/C [11] of 38.3%, a viability, T/C [12] of 54.1% and a viability, T/C [33] of 24.6%. For the same molecule, the viability, T/C [34] was 23.6%, the viability, T/C [35] was 14.6% and the viability, T/C [36] was 5.15%.
In the case of `COc1cc(C2c3cc4c(cc3C(OC3OC5COC(C)OC5C(O)C3O)C3COC(=O)C23)OCO4)cc(OC)c1O` (stereo unspecified) + COC1C(OC(N)=O)C(O)C(Oc2ccc3c(O)c(NC(=O)c4ccc(O)c(CC=C(C)C)c4)c(=O)oc3c2C)OC1(C)C, the IC50 (second compound 0.0316 µM) is reported as 0.69 µM, the IC50 (second compound 0.1 µM) is reported as 0.237 µM and the IC50 (second compound 0.316 µM) is reported as 0.254 µM. For the same molecule, the IC50 (second compound 1 µM) was 0.539 µM, the IC50 (second compound 3.16 µM) was 0.274 µM and the IC50 (second compound 10 µM) was 0.588 µM. For the same molecule, the viability, T/C [1] was 77.1%, the viability, T/C [2] was 78.6% and the viability, T/C [13] was 46%. It also gave a viability, T/C [14] of 61%, a viability, T/C [15] of 12.8% and a viability, T/C [16] of 6.71%. The viability, T/C [3] was 95.9%, the viability, T/C [4] was 58.9% and the viability, T/C [17] was 44%. The viability, T/C [18] was 38.7%, the viability, T/C [19] was 13% and the viability, T/C [20] was 7.35%. For the same molecule, the viability, T/C [5] was 118%, the viability, T/C [6] was 70.7% and the viability, T/C [21] was 40.2%. It also gave a viability, T/C [22] of 36.7%, a viability, T/C [23] of 14.5% and a viability, T/C [24] of 6.69%. It also gave a viability, T/C [7] of 88.3%, a viability, T/C [8] of 67.1% and a viability, T/C [25] of 63.5%. It also gave a viability, T/C [26] of 41.2%, a viability, T/C [27] of 18.5% and a viability, T/C [28] of 7.04%. The viability, T/C [9] was 109%, the viability, T/C [10] was 60.7% and the viability, T/C [29] was 53.2%. For the same molecule, the viability, T/C [30] was 36.3%, the viability, T/C [31] was 10.2% and the viability, T/C [32] was 7.78%. For the same molecule, the viability, T/C [11] was 111%, the viability, T/C [12] was 70.2% and the viability, T/C [33] was 57.8%. It also gave a viability, T/C [34] of 52.3%, a viability, T/C [35] of 14.9% and a viability, T/C [36] of 5.69%.
